Assay results taken from paper PMC5761851, “Application of a phenotypic drug discovery strategy to identify biological and chemical starting points for inhibition of TSLP production in lung epithelial cells” (PLoS ONE, 2018).

Tests used:
Experiment in all cases: kinase selectivity panel
Format in all cases: biochemical
JAK1 = target: T1, JAK1 (Homo sapiens, UniProt P23458); settings: read-out: percentage of control activity (POC), JAK1
T1 construct: purchased Eurofins Pharma Discovery Services (KinaseProfiler; Cerep BioPrint panel)
T1 sequence (P23458 whole entry): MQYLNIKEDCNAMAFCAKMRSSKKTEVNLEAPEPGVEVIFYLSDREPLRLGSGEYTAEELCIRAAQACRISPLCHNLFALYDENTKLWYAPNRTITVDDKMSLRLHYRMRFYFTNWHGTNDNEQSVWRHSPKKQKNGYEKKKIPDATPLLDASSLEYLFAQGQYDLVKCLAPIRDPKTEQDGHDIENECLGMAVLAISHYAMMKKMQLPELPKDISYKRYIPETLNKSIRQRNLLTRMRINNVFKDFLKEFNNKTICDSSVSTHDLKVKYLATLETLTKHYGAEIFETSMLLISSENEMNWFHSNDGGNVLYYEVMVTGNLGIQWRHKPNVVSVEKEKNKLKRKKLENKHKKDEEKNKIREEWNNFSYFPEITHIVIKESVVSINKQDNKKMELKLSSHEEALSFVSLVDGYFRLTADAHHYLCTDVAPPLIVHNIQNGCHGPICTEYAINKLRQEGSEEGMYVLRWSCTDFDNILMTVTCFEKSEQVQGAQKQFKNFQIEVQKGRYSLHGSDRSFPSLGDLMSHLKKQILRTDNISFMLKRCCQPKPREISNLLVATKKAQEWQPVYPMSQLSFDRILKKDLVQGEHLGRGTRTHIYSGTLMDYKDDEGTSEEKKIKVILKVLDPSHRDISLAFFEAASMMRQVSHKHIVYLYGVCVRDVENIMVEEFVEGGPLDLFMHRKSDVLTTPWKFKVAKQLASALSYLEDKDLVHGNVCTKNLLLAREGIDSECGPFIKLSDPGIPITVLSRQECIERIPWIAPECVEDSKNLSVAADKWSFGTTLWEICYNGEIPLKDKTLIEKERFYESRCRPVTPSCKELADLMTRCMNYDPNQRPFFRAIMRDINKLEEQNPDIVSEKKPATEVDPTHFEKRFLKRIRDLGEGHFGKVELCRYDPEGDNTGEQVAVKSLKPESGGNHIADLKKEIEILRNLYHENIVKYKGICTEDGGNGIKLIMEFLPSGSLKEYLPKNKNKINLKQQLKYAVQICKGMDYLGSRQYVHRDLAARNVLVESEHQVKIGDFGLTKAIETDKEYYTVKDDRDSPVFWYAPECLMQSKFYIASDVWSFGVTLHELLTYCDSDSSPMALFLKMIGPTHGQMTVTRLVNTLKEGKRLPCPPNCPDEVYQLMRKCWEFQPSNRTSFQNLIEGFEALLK
How it was run: (§1)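 IC50 values derive from 9 duplicate concentrations, run only for activities picked after an initial 10 μM duplicate screen across 125 representative kinases.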

MKK6 = target: T2, MKK6 (Homo sapiens, UniProt P52564); settings: for remaining activity at 10 µM: read-out: percentage of control activity (POC), MKK6
T2 construct: purchased Eurofins Pharma Discovery Services (KinaseProfiler; Cerep BioPrint panel)
T2 sequence (P52564 1-334): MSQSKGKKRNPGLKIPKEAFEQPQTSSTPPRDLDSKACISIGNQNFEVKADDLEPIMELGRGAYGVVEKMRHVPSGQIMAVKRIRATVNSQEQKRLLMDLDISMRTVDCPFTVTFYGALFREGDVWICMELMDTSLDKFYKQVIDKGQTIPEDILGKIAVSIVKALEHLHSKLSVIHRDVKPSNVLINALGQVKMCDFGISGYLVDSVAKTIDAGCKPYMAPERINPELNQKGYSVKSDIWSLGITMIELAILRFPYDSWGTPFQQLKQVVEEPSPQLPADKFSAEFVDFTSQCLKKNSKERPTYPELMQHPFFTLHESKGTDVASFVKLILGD
How it was run: as §1

PKCι = target: T3, PKCι (Homo sapiens, UniProt P41743); settings: read-out: percentage of control activity (POC), PKCι
T3 construct: purchased Eurofins Pharma Discovery Services (KinaseProfiler; Cerep BioPrint panel)
T3 sequence (P41743 1-596): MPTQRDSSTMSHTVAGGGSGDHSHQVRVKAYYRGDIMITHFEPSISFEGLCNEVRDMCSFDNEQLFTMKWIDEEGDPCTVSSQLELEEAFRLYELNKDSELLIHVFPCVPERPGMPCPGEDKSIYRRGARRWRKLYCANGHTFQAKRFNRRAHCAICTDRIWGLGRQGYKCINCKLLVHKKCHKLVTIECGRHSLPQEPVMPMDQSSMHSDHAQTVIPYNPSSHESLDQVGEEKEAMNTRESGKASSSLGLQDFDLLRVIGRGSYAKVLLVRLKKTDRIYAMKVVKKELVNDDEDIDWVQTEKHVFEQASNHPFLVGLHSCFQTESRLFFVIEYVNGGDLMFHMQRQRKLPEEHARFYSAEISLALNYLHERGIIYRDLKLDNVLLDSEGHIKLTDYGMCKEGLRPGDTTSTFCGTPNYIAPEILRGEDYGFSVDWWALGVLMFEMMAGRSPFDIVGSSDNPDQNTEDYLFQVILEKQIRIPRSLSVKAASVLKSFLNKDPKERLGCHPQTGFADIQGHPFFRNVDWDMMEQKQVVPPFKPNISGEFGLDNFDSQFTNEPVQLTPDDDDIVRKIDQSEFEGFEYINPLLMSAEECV
How it was run: as §1

JAK3 = target: T4, JAK3 (Homo sapiens, UniProt P52333); settings: read-out: percentage of control activity (POC), JAK3
T4 construct: purchased Eurofins Pharma Discovery Services (KinaseProfiler; Cerep BioPrint panel)
T4 sequence (P52333 1-1124): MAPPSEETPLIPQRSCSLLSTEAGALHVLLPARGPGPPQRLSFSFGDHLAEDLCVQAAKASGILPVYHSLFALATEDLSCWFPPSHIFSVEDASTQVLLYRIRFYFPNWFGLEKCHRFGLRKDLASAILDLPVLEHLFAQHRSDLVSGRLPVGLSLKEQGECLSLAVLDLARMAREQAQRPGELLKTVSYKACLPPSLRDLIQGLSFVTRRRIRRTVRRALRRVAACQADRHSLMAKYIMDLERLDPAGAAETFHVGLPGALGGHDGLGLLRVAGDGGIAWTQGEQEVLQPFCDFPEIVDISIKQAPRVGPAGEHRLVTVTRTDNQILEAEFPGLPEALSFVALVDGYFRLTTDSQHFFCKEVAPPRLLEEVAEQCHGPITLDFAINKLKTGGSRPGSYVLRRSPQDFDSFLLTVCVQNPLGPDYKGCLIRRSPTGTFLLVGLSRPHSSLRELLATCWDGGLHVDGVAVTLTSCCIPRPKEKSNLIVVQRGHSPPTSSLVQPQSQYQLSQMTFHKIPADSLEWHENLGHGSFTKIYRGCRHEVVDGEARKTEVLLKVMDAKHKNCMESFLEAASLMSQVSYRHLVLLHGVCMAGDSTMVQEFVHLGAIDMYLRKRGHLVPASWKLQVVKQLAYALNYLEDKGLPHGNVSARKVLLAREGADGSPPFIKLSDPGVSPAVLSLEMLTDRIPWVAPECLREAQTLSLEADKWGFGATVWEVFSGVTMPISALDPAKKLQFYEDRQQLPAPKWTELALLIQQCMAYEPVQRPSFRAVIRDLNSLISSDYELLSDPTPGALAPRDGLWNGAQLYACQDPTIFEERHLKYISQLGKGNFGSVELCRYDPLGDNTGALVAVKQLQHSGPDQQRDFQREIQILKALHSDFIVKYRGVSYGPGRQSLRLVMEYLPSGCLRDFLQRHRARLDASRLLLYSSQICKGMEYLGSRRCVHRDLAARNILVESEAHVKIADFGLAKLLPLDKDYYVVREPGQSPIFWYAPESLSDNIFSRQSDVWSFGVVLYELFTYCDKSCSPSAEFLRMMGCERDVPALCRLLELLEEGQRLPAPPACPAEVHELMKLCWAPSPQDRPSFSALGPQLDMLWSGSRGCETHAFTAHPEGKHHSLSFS
How it was run: as §1

JNK1α1 = target: T5, JNK1α1 (Homo sapiens, UniProt P45983); settings: read-out: percentage of control activity (POC), JNK1α1
T5 construct: purchased Eurofins Pharma Discovery Services (KinaseProfiler; Cerep BioPrint panel)
T5 sequence (P45983 1-384 isoform P45983-2): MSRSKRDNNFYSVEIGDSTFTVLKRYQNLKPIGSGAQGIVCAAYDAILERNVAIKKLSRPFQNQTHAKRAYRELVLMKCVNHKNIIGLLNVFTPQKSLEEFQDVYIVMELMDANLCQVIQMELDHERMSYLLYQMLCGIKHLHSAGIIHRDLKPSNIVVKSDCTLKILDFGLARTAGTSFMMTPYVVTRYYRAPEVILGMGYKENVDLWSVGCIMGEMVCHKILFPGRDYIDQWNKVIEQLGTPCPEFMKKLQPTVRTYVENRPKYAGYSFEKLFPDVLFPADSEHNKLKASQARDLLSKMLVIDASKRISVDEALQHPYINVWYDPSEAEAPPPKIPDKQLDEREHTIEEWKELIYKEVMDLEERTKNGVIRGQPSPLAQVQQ
How it was run: as §1

Syk = Syk (Homo sapiens, UniProt P43405); settings: read-out: percentage of control activity (POC), Syk
How it was run: as §1

Yes = target: T6, Yes (Homo sapiens, UniProt P07947); settings: for remaining activity at 10 µM: read-out: percentage of control activity (POC), Yes
T6 construct: Eurofins Pharma Discovery Services (contract assay service)
T6 sequence (P07947 whole entry, species assumed): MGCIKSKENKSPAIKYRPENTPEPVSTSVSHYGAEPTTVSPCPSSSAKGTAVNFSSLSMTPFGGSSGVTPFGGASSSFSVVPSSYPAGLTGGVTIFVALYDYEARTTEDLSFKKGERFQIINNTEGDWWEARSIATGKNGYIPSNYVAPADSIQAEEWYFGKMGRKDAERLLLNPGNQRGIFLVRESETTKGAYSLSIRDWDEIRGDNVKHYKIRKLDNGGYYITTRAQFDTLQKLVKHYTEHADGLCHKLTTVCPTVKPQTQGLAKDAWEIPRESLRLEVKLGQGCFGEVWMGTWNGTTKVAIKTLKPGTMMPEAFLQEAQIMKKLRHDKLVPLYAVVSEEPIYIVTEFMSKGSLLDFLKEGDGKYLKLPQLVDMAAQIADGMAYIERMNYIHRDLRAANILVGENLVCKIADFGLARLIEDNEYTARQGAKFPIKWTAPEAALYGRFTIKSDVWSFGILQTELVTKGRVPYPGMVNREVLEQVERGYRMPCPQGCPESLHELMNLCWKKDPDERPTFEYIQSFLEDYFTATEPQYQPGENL
How it was run: as §1

cKit = target: T7, cKit (Homo sapiens, UniProt P10721); settings: read-out: percentage of control activity (POC), cKit
T7 construct: purchased Eurofins Pharma Discovery Services (KinaseProfiler; Cerep BioPrint panel)
T7 sequence (P10721 26-976): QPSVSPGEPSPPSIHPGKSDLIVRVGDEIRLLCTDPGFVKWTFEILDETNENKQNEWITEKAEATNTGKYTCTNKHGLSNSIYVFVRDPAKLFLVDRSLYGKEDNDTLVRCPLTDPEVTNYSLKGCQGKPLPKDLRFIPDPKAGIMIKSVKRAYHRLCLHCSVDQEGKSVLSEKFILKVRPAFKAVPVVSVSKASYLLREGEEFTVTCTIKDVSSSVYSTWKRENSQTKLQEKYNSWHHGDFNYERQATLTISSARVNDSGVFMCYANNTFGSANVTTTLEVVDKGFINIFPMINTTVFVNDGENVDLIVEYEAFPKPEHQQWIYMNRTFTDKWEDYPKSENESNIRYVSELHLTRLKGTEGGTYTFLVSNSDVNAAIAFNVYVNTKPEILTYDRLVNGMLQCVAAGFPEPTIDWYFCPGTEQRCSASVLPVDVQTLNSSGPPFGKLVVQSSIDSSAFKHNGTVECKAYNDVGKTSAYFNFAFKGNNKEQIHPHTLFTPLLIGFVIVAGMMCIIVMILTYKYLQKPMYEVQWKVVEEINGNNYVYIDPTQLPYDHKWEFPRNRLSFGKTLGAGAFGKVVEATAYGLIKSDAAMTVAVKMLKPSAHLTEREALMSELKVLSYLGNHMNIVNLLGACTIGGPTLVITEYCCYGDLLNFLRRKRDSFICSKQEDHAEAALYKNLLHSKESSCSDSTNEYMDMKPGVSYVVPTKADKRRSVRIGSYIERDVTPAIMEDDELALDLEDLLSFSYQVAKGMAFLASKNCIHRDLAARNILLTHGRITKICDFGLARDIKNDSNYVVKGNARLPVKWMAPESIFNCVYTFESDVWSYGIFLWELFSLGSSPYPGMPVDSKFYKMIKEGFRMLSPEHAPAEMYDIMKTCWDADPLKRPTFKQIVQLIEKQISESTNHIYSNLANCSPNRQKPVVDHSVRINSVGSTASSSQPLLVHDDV
How it was run: as §1

CK1δ = target: T8, CK1δ (Homo sapiens, UniProt P48730); settings: read-out: percentage of control activity (POC), CK1δ
T8 construct: purchased Eurofins Pharma Discovery Services (KinaseProfiler; Cerep BioPrint panel)
T8 sequence (P48730 whole entry): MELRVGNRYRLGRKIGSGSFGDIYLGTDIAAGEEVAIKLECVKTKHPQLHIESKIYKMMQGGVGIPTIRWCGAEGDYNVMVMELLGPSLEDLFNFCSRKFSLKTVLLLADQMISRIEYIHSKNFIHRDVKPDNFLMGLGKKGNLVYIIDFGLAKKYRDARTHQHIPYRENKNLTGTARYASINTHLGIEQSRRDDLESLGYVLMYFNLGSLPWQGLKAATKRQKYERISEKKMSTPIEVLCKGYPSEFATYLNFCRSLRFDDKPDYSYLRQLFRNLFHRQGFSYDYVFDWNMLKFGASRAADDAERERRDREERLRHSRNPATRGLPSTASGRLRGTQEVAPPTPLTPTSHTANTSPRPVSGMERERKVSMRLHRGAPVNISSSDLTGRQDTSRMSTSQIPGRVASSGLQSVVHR
How it was run: as §1

remaining activity at 10 µM (JAK1) [%] | inhibition at 10 µM (MKK6) [%] | remaining activity at 10 µM (MKK6) [%] | remaining activity at 10 µM (PKCι) [%] | remaining activity at 10 µM (JAK3) [%] | remaining activity at 10 µM (JNK1α1) [%] | remaining activity at 10 µM (Syk) [%] | remaining activity at 10 µM (Yes; 10 μM) [%] | remaining activity at 10 µM (cKit) [%] | remaining activity at 10 µM (CK1δ) [%] | SMILES | inhibition at 10 µM (Yes; 10 μM) [%] | IC50 (Yes; biochemical dose response, duplicate, read-out: Inhibition of indicated activity (IC50, μM): Yes) [µM]
91 | ~100 | 0 | 103 | 102 | 97 | 95 | 107 | 96 | 110 | CC(C)(C)N1CCC(c2cc(-c3ccc(F)cc3Cl)c3cc[n+]([O-])c(-c4c(Cl)cccc4Cl)c3n2)CC1 [compound 2] |  | 
93 | ~100 | -3 | 100 | 100 | 96 | 101 | 100 | 88 | 100 | Cc1ccc(C(=O)NCC2CC2)cc1-c1ccc2c(c1)NC(=O)C21CCCC1 [compound 3] |  | 
101 | ~100 | -3 | 103 | 99 | 96 | 86 | 99 | 92 | 111 | COc1c(NC(=O)c2ccc(C)c(-c3nnc4c(NCC(C)(C)C)nccn34)c2)cc(C(C)(C)C)cc1NS(C)(=O)=O [compound 7, reference compound] |  | 

Further lines, the compound ahead of its results:

SMILES | remaining activity at 10 µM (JAK1) [%] | inhibition at 10 µM (MKK6) [%] | remaining activity at 10 µM (MKK6) [%] | remaining activity at 10 µM (PKCι) [%] | remaining activity at 10 µM (JAK3) [%] | remaining activity at 10 µM (JNK1α1) [%] | remaining activity at 10 µM (Syk) [%] | remaining activity at 10 µM (Yes; 10 μM) [%] | remaining activity at 10 µM (cKit) [%] | remaining activity at 10 µM (CK1δ) [%] | inhibition at 10 µM (Yes; 10 μM) [%] | IC50 (Yes; biochemical dose response, duplicate, read-out: Inhibition of indicated activity (IC50, μM): Yes) [µM]
Cn1cc(-c2cccc(-c3nc(C(=O)NC4C5CC6CC4CC(O)(C6)C5)c(N)nc3N)c2)cn1 (centres unmarked) [compound 4] | 86 |  | 80 | 87 | 89 | 92 | 66 | 23 | 102 | 50 | 77 | 2.39
CS(=O)(=O)N1CCN(c2ccc(Nc3ncc(C(N)=O)c(NC4CC4)n3)cc2)CC1 [compound 5] | -2 |  | 32 | 83 | -2 | 3 | 0 | 4 | 1 | 23 |  | 
